# In patent publication EP3426634B1, “DISUBTITUTED AZETIDINES, PYRROLIDINES, PIPERIDINES AND AZEPANES AS INHIBITORS OF MONOAMINE OXIDASE B FOR THE TREATMENT OF NEURODEGENERATIVE DISEASES” (University of Ljubljana, priority 2016, dated 2018):
# Target: T1, hMAO-B (Homo sapiens, UniProt P27338)
# T1 construct: purchased Sigma Aldrich M7441; host or cells: baculovirus infected insect cells (BTI-TN-5B1-4)
# T1 sequence (P27338 1-520): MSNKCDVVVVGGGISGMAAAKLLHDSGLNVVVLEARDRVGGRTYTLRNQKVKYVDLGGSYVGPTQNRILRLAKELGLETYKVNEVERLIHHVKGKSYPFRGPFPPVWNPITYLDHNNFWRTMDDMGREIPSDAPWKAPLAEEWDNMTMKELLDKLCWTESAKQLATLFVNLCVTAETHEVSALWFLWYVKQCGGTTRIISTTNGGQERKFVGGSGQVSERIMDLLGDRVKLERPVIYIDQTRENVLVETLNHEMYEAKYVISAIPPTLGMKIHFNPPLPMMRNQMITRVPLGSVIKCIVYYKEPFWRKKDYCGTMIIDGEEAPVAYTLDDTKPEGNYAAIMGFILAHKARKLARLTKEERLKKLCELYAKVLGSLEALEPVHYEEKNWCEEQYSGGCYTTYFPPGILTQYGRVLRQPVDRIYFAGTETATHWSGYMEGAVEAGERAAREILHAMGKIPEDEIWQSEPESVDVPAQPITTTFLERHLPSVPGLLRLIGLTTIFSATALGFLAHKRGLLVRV
# Experiment: Reversibility assay (100-fold dilution)
# Type: biochemical
# Settings: hMAO-B at 100-fold final concentration incubated 15 min at 37 °C with inhibitor at 10-fold the IC50, then diluted 100-fold; monitored 30 min
# Description: The final concentrations of all of the reagents and MAO-B were the same as in the assay described above. The reaction was monitored for 30 min. Control experiments were carried out in the same manner, where the inhibitor solution was replaced by DMSO.
row,Activity of the enzyme after 100-fold dilution (in percentage ±SD) [percentage],SMILES
1,94.91 ±2.52,C#CCCN1CCC(/C=C/c2ccc(F)cc2)CC1 [drawing 194]
2,74.01 ±2.76,C#CCCCN1CCC(/C=C/c2ccc(F)cc2)CC1 [drawing 195]
3,5.55 ±0.25,C#CCN1CCCC(Cc2ccc(F)cc2)CC1 (stereo not drawn) [drawing 196]

# Target: T1, hMAO-B
# Experiment: Inhibition assay using human recombinant MAO-B (fluorimetric Amplex Red assay)
# Type: biochemical
# Settings: 1 mM p-tyramine, 15 min pre-incubation at 37 °C, pH 7.4, Amplex Red/horseradish peroxidase, read-out: hMAO-B IC50 [nM] ±SEM
# Description: The inhibitory activity of the compounds was evaluated by their effects on the production of hydrogen peroxide (H2O2) from p-tyramine, a nonspecific substrate for both hMAO isoforms. The production of the H2O2 was detected using Amplex Red reagent in the presence of horseradish peroxidase, where a highly sensitive fluorescent product, resorufin, is produced at stoichiometric amounts. Recombinant human microsomal hMAO enzymes expressed in baculovirus infected insect cells (BTI-TN-5B1-4), horse-radish peroxidase (type II, lyophilized powder), and p-tyramine hydrochloride were purchased from Sigma Aldrich.
# The production of resorufin was quantified on the basis of the fluorescence generated (λex= 530 nm, λem = 590 nm) at 37 °C over a period of 20 min, during which time the fluorescence increase linearly. For control experiments, DMSO was used instead of the appropriate dilutions of the compounds in DMSO. To determine the blank value (b), phosphate-buffered solution replaced the enzyme solution. The initial velocities were calculated from the trends obtained, with each measurement carried out in duplicate. The inhibitory potencies are expressed as the residual activities (RA = (vi-b) / (vo-b), where vi is the velocity in the presence of the test compounds, and v0 the control velocity in the presence of DMSO. The IC50 values were obtained by plotting residual enzyme activities against applied inhibitor concentration, with the experimental data fitted to a Hill four parameter equation (Equation (1)) using in-house python script and Gnuplot software. Y = Min + (Max−Min)/(1+10^(∧)((LogIC50−X)×Hillcoefficient)) [formula] where X represent logarithm of inhibitor concentration, and Y the residual activity.
# The capacity of the test compounds to react directly with Amplex Red was determined by adding these compounds to a solution containing all of the components except the MAO isoenzyme.
row,IC50 [nM],SMILES
1,163 ± 17,C#CCCCN1CCC(/C=C/c2ccc(F)cc2)CC1 [drawing 177]
2,1440 ± 140,C#CCN1CCC(CCc2ccc(Br)cc2)CC1
3,730 ± 85.6,C#CCN1CCC(/C=C/c2ccccn2)CC1
4,475 ± 28.6,C#CCCN1CCC(/C=C/c2ccc(F)cc2)CC1 [drawing 173]
5,48800 ± 3240,C#CCN1CCC(=Cc2ccc(F)cc2)CC1
6,59.2 ± 6,C#CCN1CCCC(Cc2ccc(F)cc2)CC1 (stereo not drawn) [drawing 183]
7,1700 ± 292,C#CCCN1CCC(CCc2ccc(F)cc2)CC1
8,17400 ± 2040,C#CCN1CCC(/C=C/c2ccc(F)cc2)C1 (stereo not drawn)
9,250 ± 42.4,C#CCN1CCCC(CCc2ccc(F)cc2)CC1 (stereo not drawn)
